Read-outs that look alike come from different tables or passages of the source.
How the values were obtained:
Format in all cases: cell-based
[1] = system: IL-17A; assay: Cytokine assay: IL-17A production by human PBMC stimulated with PHA; details: IC50 class, read-out: IL-17A Inhib.
Experimental: (§1) Cytokine Assay: Analysis of Proliferation of and Cytokine Production by Human PBMC Stimulated with PHA
(§2) Peripheral blood mononuclear cells (PBMC) from healthy human donors were purified using Accuspin™ System-Histopaque-1077 (Sigma) according to the protocol recommended by the manufacturer. Purified PBMC were then washed twice with phosphate-buffered saline (PBS) and resuspended in RPMI1640 culture medium supplemented with 10% dialyzed heat inactivated fetal calf serum, 1.5 mM L-glutamine, 100 U penicillin/ml, and […] (all from PAN Biotech, Aidenbach, Germany). For stimulation, PBMC were seeded at 1×10^5 cells/well, activated with 2 μg/ml phytohaemagglutinin (PHA, Sigma) and incubated with the test compounds for 48 hours. IL-17A, IL-17F and INF-γ were then determined in the culture supernatant using a Luminex BioPlex system, following the manufacturer's instructions (BioRad, Munich, Germany). For screening, compounds were used at 10, 1, 0.1 and 0.01 μM. To determine the IC50, compounds were titrated semilogarithmically.
(§3) Cytokines were determined in the aforementioned culture supernatant using the following methods: IL-17A was measured using the human homodimer IL-17A ELISA Ready Set Go Kit from eBioscience (Frankfurt, Germany); IL-17F using the human IL-17F ELI-Pair from Hölzel DiagnosticaGmBH (Köln, Germany); and IFN-γ using the OptEIA human IFN-g ELISA from BD Bioscience (Heidelberg, Germany), all following the manufacturer's instructions.

[2] = system: INF-γ; assay: Cytokine assay: INF-γ production by human PBMC stimulated with PHA; details: IC50 class, read-out: IFN-gamma Inhib.
Experimental: as §1, §2, §3

[3] = system: IL-17F; assay: Cytokine assay: IL-17F production by human PBMC stimulated with PHA; details: IC50 class, read-out: IL-17F Inhib.
Experimental: as §1, §2, §3

SMILES | IC50 ([1]; Homo sapiens, PBMC) | IC50 ([2]; Homo sapiens, PBMC) | IC50 ([3]; Homo sapiens, PBMC) | IC50 [1] | IC50 [2] | IC50 [3]
CCOC(=O)c1c(-c2c(F)cccc2Cl)noc1-c1cnn([C@H]2C[C@@](C)(O)C2)c1C(F)(F)F [Example 11, ethyl 3-(2-chloro-6-fluorophenyl)-5-[1-(3-hydroxy-3-methylcyclobutyl)-5-(trifluoromethyl)-1H-pyrazol-4-yl]-1,2-oxazole-4-carboxylate] | – | – | – | < 0.05 µM | – | –
COC(=O)c1c(-c2ccccc2Cl)noc1-c1cnn([C@H]2C[C@](C)(O)C2)c1C [Example 17, methyl 3-(2-chlorophenyl)-5-(1-(3-hydroxy-3-methylcyclobutyl)-5-methyl-1H-pyrazol-4-yl)isoxazole-4-carboxylate] | – | – | – | 0.5 to 5 µM | 0.5 to 5 µM | 0.5 to 5 µM
COC(=O)c1c(-c2cccnc2OC)noc1-c1cnn(C[C@@H](C)O)c1C(F)(F)F [Example 21, methyl (R)-5-(1-(2-hydroxypropyl)-5-(trifluoromethyl)-1H-pyrazol-4-yl)-3-(2-methoxypyridin-3-yl)isoxazole-4-carboxylate] | 0.5 to 5 µM | 0.5 to 5 µM | 0.5 to 5 µM | – | – | –
COC(=O)c1c(-c2ccccc2Cl)noc1-c1cnn(C[C@H](C)O)c1C(F)(F)F [Example 22, methyl (S)-3-(2-chlorophenyl)-5-(1-(2-hydroxypropyl)-5-(trifluoromethyl)-1H-pyrazol-4-yl)isoxazole-4-carboxylate] | 0.05 to 0.5 µM | < 0.05 µM | 0.05 to 0.5 µM | – | – | –
COC(=O)c1c(-c2ccccc2Cl)noc1-c1cnn(C[C@H](C)O)c1C [Example 24, methyl (S)-3-(2-chlorophenyl)-5-(1-(2-hydroxypropyl)-5-methyl-1H-pyrazol-4-yl)isoxazole-4-carboxylate] | 0.5 to 5 µM | 0.05 to 0.5 µM | 0.05 to 0.5 µM | – | – | –

The next lines start with the values.

IC50 ([1]; Homo sapiens, PBMC) | IC50 ([2]; Homo sapiens, PBMC) | IC50 ([3]; Homo sapiens, PBMC) | IC50 [1] | IC50 [2] | IC50 [3] | SMILES
0.5 to 5 µM | ≥ 5 µM | ≥ 5 µM | – | – | – | C=CCCC(O)(CC1CC1)c1c(-c2c(F)cccc2Cl)noc1-c1cnn(CC(C)(C)O)c1C(F)(F)F (racemic) [Example 38, 2-[3-(2-chloro-6-fluorophenyl)-5-[1-(2-hydroxy-2-methylpropyl)-5-(trifluoromethyl)-1H-pyrazol-4-yl]-1,2-oxazol-4-yl]-1-cyclopropylhex-5-en-2-ol]
0.5 to 5 µM | 0.5 to 5 µM | 0.5 to 5 µM | – | – | – | COC(=O)c1c(-c2c(F)cccc2Cl)noc1-c1cnn(C2CC(O)C2)c1C(F)(F)F (stereo not drawn) [Example 28, methyl 3-(2-chloro-6-fluorophenyl)-5-(1-(3-hydroxycyclobutyl)-5-(trifluoromethyl)-1H-pyrazol-4-yl)isoxazole-4-carboxylate]
0.5 to 5 µM | 0.05 to 0.5 µM | 0.5 to 5 µM | – | – | – | COC[C@]1(O)C[C@@H](n2ncc(-c3onc(-c4ccccc4Cl)c3C(=O)OC)c2C(F)(F)F)C1 [Example 29, methyl 3-(2-chlorophenyl)-5-(1-(3-hydroxy-3-(methoxymethyl)cyclobutyl)-5-(trifluoromethyl)-1H-pyrazol-4-yl)isoxazole-4-carboxylate]
– | – | – | < 0.05 µM | – | – | Cc1c(-c2onc(-c3c(F)cccc3Cl)c2C(=O)OC2CC2)cnn1[C@H]1C[C@@](C)(O)C1 [Example 62, cyclopropyl 3-(2-chloro-6-fluorophenyl)-5-{5-methyl-1-[3-hydroxy-3-methylcyclobutyl]-1H-pyrazol-4-yl}-1,2-oxazole-4-carboxylate]
– | 0.5 to 5 µM | 0.5 to 5 µM | – | – | – | COCc1c(-c2c(F)cccc2Cl)noc1-c1cnn([C@H]2C[C@@](C)(O)C2)c1C [Example 70, 3-{4-[3-(2-chloro-6-fluorophenyl)-4-(methoxymethyl)-1,2-oxazol-5-yl]-5-methyl-1H-pyrazol-1-yl}-1-methylcyclobutan-1-ol]
– | 0.5 to 5 µM | 0.5 to 5 µM | – | – | – | COCc1c(-c2c(F)cccc2Cl)noc1-c1cnn([C@H]2C[C@](C)(O)C2)c1C [Example 71, 3-{4-[3-(2-chloro-6-fluorophenyl)-4-(methoxymethyl)-1,2-oxazol-5-yl]-5-methyl-1H-pyrazol-1-yl}-1-methylcyclobutan-1-ol]

Reference: patent US11292788B2, “IL-17 and IFN-gamma inhibition for the treatment of autoimmune diseases and chronic inflammation” (Immunic AG, priority 2017, dated 2022)
